Reference: ChEMBL document CHEMBL3621049, “Imidazole derivatives show anticancer potential by inducing apoptosis and cellular senescence” (2014)
The source made the active and inactive calls.

What was measured:
Type in all cases: functional, cell-based
K562 = assay: Growth inhibition of human K562 cells at 10 uM by sulforhodamine B assay
ACHN = assay: Growth inhibition of human ACHN cells at 10 uM by sulforhodamine B assay
SN12C = assay: Growth inhibition of human SN12C cells at 10 uM by sulforhodamine B assay
SK-MEL-28 = assay: Growth inhibition of human SK-MEL-28 cells at 10 uM by sulforhodamine B assay
NCI-H522 = assay: Growth inhibition of human NCI-H522 cells at 10 uM by sulforhodamine B assay
CAKI-1 = assay: Growth inhibition of human Caki1 cells at 10 uM by sulforhodamine B assay
HOP-62 = assay: Growth inhibition of human HOP62 cells at 10 uM by sulforhodamine B assay
SK-OV-3 = assay: Growth inhibition of human SKOV3 cells at 10 uM by sulforhodamine B assay
NCI-H23 = assay: Growth inhibition of human NCI-H23 cells at 10 uM by sulforhodamine B assay
RXF 393 = assay: Growth inhibition of human RXF393 cells at 10 uM by sulforhodamine B assay
SNB-75 = assay: Growth inhibition of human SNB75 cells at 10 uM by sulforhodamine B assay
UO-31 = assay: Growth inhibition of human UO31 cells at 10 uM by sulforhodamine B assay
MCF7 = assay: Growth inhibition of human MCF7 cells at 10 uM by sulforhodamine B assay
NCI/ADR-RES = assay: Growth inhibition of human NCI/ADR-RES cells at 10 uM by sulforhodamine B assay
KM12 = assay: Growth inhibition of human KM12 cells at 10 uM by sulforhodamine B assay
HCT-15 = assay: Growth inhibition of human HCT15 cells at 10 uM by sulforhodamine B assay
HT-29 = assay: Growth inhibition of human HT-29 cells at 10 uM by sulforhodamine B assay
T47D = assay: Growth inhibition of human T47D cells at 10 uM by sulforhodamine B assay
HCT-116 = assay: Growth inhibition of human HCT116 cells at 10 uM by sulforhodamine B assay
OVCAR-3 = assay: Growth inhibition of human OVCAR3 cells at 10 uM by sulforhodamine B assay
SNB-19 = assay: Growth inhibition of human SNB19 cells at 10 uM by sulforhodamine B assay
SR = assay: Growth inhibition of human SR cells at 10 uM by sulforhodamine B assay
HOP-92 = assay: Growth inhibition of human HOP92 cells at 10 uM by sulforhodamine B assay
IGROV-1 = assay: Growth inhibition of human IGROV1 cells at 10 uM by sulforhodamine B assay
UACC-257 = assay: Growth inhibition of human UACC257 cells at 10 uM by sulforhodamine B assay
MDA-MB-231 = assay: Growth inhibition of human MDA-MB-231 cells at 10 uM by sulforhodamine B assay
SK-MEL-5 = assay: Growth inhibition of human SK-MEL-5 cells at 10 uM by sulforhodamine B assay
SF-268 = assay: Growth inhibition of human SF268 cells at 10 uM by sulforhodamine B assay
OVCAR-8 = assay: Growth inhibition of human OVCAR8 cells at 10 uM by sulforhodamine B assay
NCI-H226 = assay: Growth inhibition of human NCI-H226 cells at 10 uM by sulforhodamine B assay
786-0 = assay: Growth inhibition of human 786-0 cells at 10 uM by sulforhodamine B assay
M14 = assay: Growth inhibition of human M14 cells at 10 uM by sulforhodamine B assay
Malme-3M = assay: Growth inhibition of human MALME-3M cells at 10 uM by sulforhodamine B assay
LOX IMVI = assay: Growth inhibition of human LOXIMVI cells at 10 uM by sulforhodamine B assay
OVCAR-5 = assay: Growth inhibition of human OVCAR5 cells at 10 uM by sulforhodamine B assay
NCI-H460 = assay: Growth inhibition of human NCI-H460 cells at 10 uM by sulforhodamine B assay
SF-295 = assay: Growth inhibition of human SF295 cells at 10 uM by sulforhodamine B assay
BT-549 = assay: Growth inhibition of human BT549 cells at 10 uM by sulforhodamine B assay
A498 = assay: Growth inhibition of human A498 cells at 10 uM by sulforhodamine B assay
COLO 205 = assay: Growth inhibition of human COLO205 cells at 10 uM by sulforhodamine B assay
UACC-62 = assay: Growth inhibition of human UACC62 cells at 10 uM by sulforhodamine B assay
SF-539 = assay: Growth inhibition of human SF539 cells at 10 uM by sulforhodamine B assay
TK-10 = assay: Growth inhibition of human TK10 cells at 10 uM by sulforhodamine B assay
MDA-MB-435 = assay: Growth inhibition of human MDA-MB-435 cells at 10 uM by sulforhodamine B assay
Hs-578T = assay: Growth inhibition of human Hs 578T cells at 10 uM by sulforhodamine B assay
HCC 2998 = assay: Growth inhibition of human HCC2998 cells at 10 uM by sulforhodamine B assay
MOLT-4 = assay: Growth inhibition of human MOLT4 cells at 10 uM by sulforhodamine B assay
U-251 = assay: Growth inhibition of human U251 cells at 10 uM by sulforhodamine B assay
SK-MEL-2 = assay: Growth inhibition of human SK-MEL-2 cells at 10 uM by sulforhodamine B assay
RPMI-8226 = assay: Growth inhibition of human RPMI8226 cells at 10 uM by sulforhodamine B assay
MDA-MB-468 = assay: Growth inhibition of human MDA-MB-468 cells at 10 uM by sulforhodamine B assay
PC-3 = assay: Growth inhibition of human PC3 cells at 10 uM by sulforhodamine B assay
OVCAR-4 = assay: Growth inhibition of human OVCAR4 cells at 10 uM by sulforhodamine B assay
NCI-H322M = assay: Growth inhibition of human NCI-H322M cells at 10 uM by sulforhodamine B assay
A549 = assay: Growth inhibition of human A549/ATCC cells at 10 uM by sulforhodamine B assay
CCRF-CEM = assay: Growth inhibition of human CCRF-CEM cells at 10 uM by sulforhodamine B assay
SW-620 = assay: Growth inhibition of human SW620 cells at 10 uM by sulforhodamine B assay
DU-145 = assay: Growth inhibition of human DU145 cells at 10 uM by sulforhodamine B assay
HL-60(TB) = assay: Growth inhibition of human HL-60(TB) cells at 10 uM by sulforhodamine B assay

Measured: growth inhibition (GI)

C#CCn1c(-c2ccc(OC3CCCC3)c(OC)c2)nc(-c2ccccc2)c1-c1ccccc1
active: all assays above

CCCCCCn1c(-c2ccc(OC)c(OC3CCCC3)c2)nc(-c2ccccc2)c1-c1ccccc1
active: all assays above
